Here are results for one substance from patent publication US20030207400A1, “Vectors for dna delivery” (priority 2003, published 2003).

The assay relates to plasmid pCMV/mEPO. The experiment in a line: Gel electrophoresis of complexes of plasmid and fluorescently labelled polyamides. The settings on record: agarose gel, after 10 min or 5 hr incubation; control rhodamine-peptide. Type of assay: binding. How it is done:
The ability of the polyamides to bind the DNA plasmid was assessed by gel electrophoresis of complexes of plasmid and fluorescently labelled polyamides.
A plasmid pCMV/mEPO was constructed by inserting the mouse EPO (mEPO) coding sequence as a EcoRI-BamHI 0.6 Kb fragment into pViJnsB (Montgomery, D. L., Shiver J. W., Leander K. R., Perry, H. C., Friedman, A., Martinez, D., Ulmer, J. B., Donnelly, J. J., Liu, M. A. (1993) DNA Cell. Biol. 12, 777-783.), which contains the CMV immediate/early region promoter and enhancer with intron A followed by the BGH polyadenylation signal. The mouse EPO coding region including 40 bp of the 5′ untranslated region (Shoemaker, C. B., & Mitsock, L. D. (1986) Mol. Cell. Biol. 6, 849-858) was assembled from synthetic oligonucleotides as described (Stemmer, W. P. C, Crameri, A., Ha, K. D., Brennan, T. M., & Heyneker, H. L. (1995) Gene 164, 49-53.).
In a typical experiment either the rhodamine labelled polyamide (33), the peptide-polyamide (35) and the correspondent rhodamine-peptide as control, were dissolved in DMSO at a 0.55 mM concentration. Serial dilutions of the polyamides and the peptide were prepared in DMSO. The plasmid stock solution was 0.54 μM. […]

For “Rhodamine-Aoc-Pro-Lys-Lys-Lys-Arg-Lys-Val-Gluu-Asp-Pro-Tyr-Lys(Br—CH2—CO)-Gly-Gly-CO—NH2 [compound 34]”, the “co-migration of the fluorescent label with the plasmid” value is recorded as “does not co-migrate with the plasmid”.
